Data taken from patent publication US6316485A, “1,5-diphenylpyrazole derivatives” (Fujisawa Pharmaceutical Co., Ltd., priority 1997, dated 2001).
pIC50: −log10 of the molar value.

Legend:
[1] = target: T1, Human COX-II (Homo sapiens, UniProt P35354); assay: Human recombinant COX-II activity in vitro (PGE2 formation, radioimmunoassay); assay type: biochemical; details: recombinant human COX-II expressed in CHO cells; arachidonic acid 10 μM; PGE2 by radioimmunoassay
T1 construct: made in house; host or cells: stably transfected Chinese hamster ovary (CHO) cells; 1700×g supernatant of sonicated cells used as crude enzyme
T1 sequence (P35354 18-604): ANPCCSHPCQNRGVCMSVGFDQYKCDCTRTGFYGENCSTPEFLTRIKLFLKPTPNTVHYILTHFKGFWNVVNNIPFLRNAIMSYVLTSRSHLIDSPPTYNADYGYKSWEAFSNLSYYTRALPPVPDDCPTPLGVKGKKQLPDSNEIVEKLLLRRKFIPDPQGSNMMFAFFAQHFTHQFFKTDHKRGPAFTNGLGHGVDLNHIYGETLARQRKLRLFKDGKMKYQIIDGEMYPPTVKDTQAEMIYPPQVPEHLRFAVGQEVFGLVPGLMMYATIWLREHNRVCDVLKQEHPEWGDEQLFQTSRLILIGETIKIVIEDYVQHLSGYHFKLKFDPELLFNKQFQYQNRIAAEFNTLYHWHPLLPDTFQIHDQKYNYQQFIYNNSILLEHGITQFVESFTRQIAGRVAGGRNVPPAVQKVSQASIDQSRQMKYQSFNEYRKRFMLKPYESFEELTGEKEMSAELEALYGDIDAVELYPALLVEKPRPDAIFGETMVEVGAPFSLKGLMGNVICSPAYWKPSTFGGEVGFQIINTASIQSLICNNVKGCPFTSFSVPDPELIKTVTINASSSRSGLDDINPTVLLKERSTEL
Description: (§1) a. Preparation of the recombinant cyclooxygenase (COX)
(§2) The human cyclooxygenase COX-I and COX-II were expressed in transfected Chinese hamster ovary (CHO) cells. Monolayer cultures of semi-confluent CHO cells stably expressing COX-I and COX-II were washed twice and scraped into phosphate buffered saline (PBS). The cells were centrifuged at 200×g for 5 minutes and the cell pellet was sonicated in reaction buffer containing 100 mM Tris-HCl (pH 7.4), 2 μM hematin and 5 mM tryptophan. Broken cells were centrifuged for 5 minutes at 1700×g at 4° C. and the supernatants were used as crude enzymes.
(§3) Cyclooxygenase activities in the absence or presence of inhibitors were measured by determining the level of prostaglandin E2 (PGE2) synthesis from arachidonic acid. Enzymes (1 μg for COX-I and/or 3 μg for COX-II) in a total volume of 200 μl of reaction buffer were incubated in the absence and presence of various concentrations of inhibitors for 5 minutes at 30° C. The reaction was then started by the addition of arachidonic acid to the final concentration of 10 μM. The reaction was terminated by 50 μl of HCl (1N) after incubation at 30° C. for 5 minutes. PGE2 was extracted with ethyl acetate, concentrated under a stream of nitrogen and analyzed by a radio immunoassay kit (Amersham) according to the manufacture's instructions.
(§4) b. Assay for human recombinant COX-I and COX-II activity
(§5) COX activity was assayed as PGE2 formation using radioimmunoassay to detect the prostaglandin release. The appropriate COX enzyme was incubated in 0.1 M Tris-HCl buffer (pH 7.3) containing hematin and tryptophan with the addition of arachidonic acid (10 μM) for 5 minutes at 37° C. Compounds were pre-incubated with the enzyme for 5 minutes prior to the addition of arachidonic acid. Any reaction between the arachidonic acid and the enzyme was stopped after 5 minutes at 37° C. by addition of 20 μl of 1N HCl. PGE2 formation was measured by radioimmunoassay (Amersham).

[2] = target: T2, Human COX-I (Homo sapiens, UniProt P23219); assay: Human recombinant COX-I activity in vitro (PGE2 formation, radioimmunoassay); assay type: biochemical; details: recombinant human COX-I expressed in CHO cells; arachidonic acid 10 μM; PGE2 by radioimmunoassay
T2 construct: made in house; host or cells: stably transfected Chinese hamster ovary (CHO) cells; 1700×g supernatant of sonicated cells used as crude enzyme
T2 sequence (P23219 24-599): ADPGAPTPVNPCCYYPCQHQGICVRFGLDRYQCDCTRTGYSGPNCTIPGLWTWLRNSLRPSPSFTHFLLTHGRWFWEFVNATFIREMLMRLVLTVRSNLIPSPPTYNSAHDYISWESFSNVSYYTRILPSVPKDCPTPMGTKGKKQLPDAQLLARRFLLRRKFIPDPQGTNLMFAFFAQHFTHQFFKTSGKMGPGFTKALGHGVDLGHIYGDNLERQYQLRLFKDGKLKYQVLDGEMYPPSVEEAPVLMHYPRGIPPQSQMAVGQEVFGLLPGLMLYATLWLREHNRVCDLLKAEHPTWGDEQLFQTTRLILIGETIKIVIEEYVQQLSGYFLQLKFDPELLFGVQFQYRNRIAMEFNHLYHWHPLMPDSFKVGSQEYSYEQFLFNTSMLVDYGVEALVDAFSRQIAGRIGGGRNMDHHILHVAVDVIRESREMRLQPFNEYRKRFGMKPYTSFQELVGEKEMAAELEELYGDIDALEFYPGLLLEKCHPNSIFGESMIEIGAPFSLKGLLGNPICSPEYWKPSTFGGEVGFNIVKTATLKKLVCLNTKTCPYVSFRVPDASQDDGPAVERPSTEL
Description: as §1, §2, §3, §4, §5

[3] = test system: Adjuvant Arthritis in Rats; assay: Effect on Adjuvant Arthritis in Rats (antiinflammatory activity); assay type: in vivo, female Sprague-Dawley rats; details: 1.0 mg/kg, orally once a day for 23 days; paw volume on day 23 vs vehicle-treated controls

Cc1ccc(-n2nc(C(F)F)cc2-c2ccc(S(C)(=O)=O)cc2)cc1Br [3-(16), 1-(3-Bromo-4-methylphenyl)-3-(difluoromethyl)-5-[4-(methylsulfonyl)phenyl]pyrazole]
pIC50 [1]: > 6.00
pIC50 [2]: < 4.00

COc1ccc(-n2nc(Cl)cc2-c2ccc(S(C)(=O)=O)cc2)cc1Cl [10-(8), 3-Chloro-1-(3-chloro-4-methoxyphenyl)-5-[4-(methylsulfonyl)phenyl]pyrazole]
Inhibition of secondary lesion (uninjected paw) [3]: ≥ 60%
pIC50 [1]: > 6.00
pIC50 [2]: < 4.00

Cc1cccc(-n2nc(C(F)(F)F)cc2-c2ccc(S(C)(=O)=O)cc2)c1 [Example 1, 1-(3-methylphenyl)-5-[4-(methylsulfonyl)phenyl]-3-(trifluoromethyl)pyrazole]
Inhibition of secondary lesion (uninjected paw) [3]: ≥ 60%

Cc1cc(-n2nc(C#N)cc2-c2ccc(S(C)(=O)=O)cc2)ccc1F [Example 6, 1-(4-fluoro-3-methylphenyl)-5-[4-(methylsulfonyl)phenyl]pyrazole-3-carbonitrile]
pIC50 [1]: > 6.00
pIC50 [2]: < 4.00
